Laboratory results as given in ChEMBL document CHEMBL3046401, “Synthesis, X-ray structure and antiproliferative activity of 3-benzylthio-4-propargylselenoquinoline” (2010).
In brackets after ≈: the same amount, converted by molar mass.

Key:
Assay type in all cases: functional
Settings in all cases: read-out: ID50 (the source's name)
[1] = Antiproliferative activity against Homo sapiens (human) HCV29T cells by SRB assay
[2] = Antiproliferative activity against Homo sapiens (human) SW707 cells by SRB assay
[3] = test system: A549; experiment: Antiproliferative activity against Homo sapiens (human) A549 cells by SRB assay
[4] = test system: T47D; experiment: Antiproliferative activity against Homo sapiens (human) T47D cells by SRB assay

Structure (SMILES) | IC50 [1] [µg/mL] | IC50 [2] [µg/mL] | IC50 [3] [µg/mL] | IC50 [4] [µg/mL]
C#CC[Se]c1c(SCc2ccccc2)cnc2ccccc12 [3-BENZYLTHIO-4-PROPARGYLSELENOQUINOLINE] | > 100 | > 100 | > 100 | > 100
C#CC[Se]c1c(SC)cnc2ccccc12 [3-METHYLTHIO-4-PROPARGYLSELENOQUINOLINE] | 1.8 (≈ 6.16 µM) | 0.6 (≈ 2.05 µM) | – | 2.5 (≈ 8.55 µM)
C#CCSc1c(SC)cnc2ccccc12 [3-METHYLTHIO-4-PROPARGYLTHIOQUINOLINE] | 5.7 (≈ 23.2 µM) | 17.6 (≈ 71.7 µM) | 6.8 (≈ 27.7 µM) | 18.4 (≈ 75 µM)
